PMC5815522 (Bioorganic & medicinal chemistry, 2016)
Values joined by “and” are separate entries in the source; they are usually repeats but may differ in a detail not shown here. Equal values may be shown once. Read-outs that look alike come from different tables or passages of the source.

How the values were obtained:
HUT-78 cells [1] = assay: Uptake in presence and absence of verapamil by flow cytometry; assay type: cell-based, human; settings: 2 × 10^−7 M selenorhodamine, 1 × 10^−4 M VER, 1 h, mean ± SD
HUT-78 cells [2] = assay type: cell-based, human
[3] = tested on: CD3+ cells of SEB-stimulated PBMCs; assay type: cell-based, human
CD3+ (CD25+) cells = assay type: cell-based, human
CD3+ (CD25−) cells = assay type: cell-based, human
[4] = in CH3OH; cited from earlier work
[5] = in CH3OH, cited from earlier work; for Quantum yield for fluorescence ΦFL: excitation at 532 nm, ± SD
[6] = CH3OH, ± SD; cited from earlier work
P-gp [7] = target: T1, P-gp (Homo sapiens, UniProt P08183); settings: cited from earlier work; for PPassive: mean of PAB and PBA in the fully inhibited system; for PAB, transport in absorptive direction / PBA, transport in secretory direction / PBA/PAB: no inhibitor; for PAB, transport in absorptive direction (+inh) / PBA, transport in secretory direction (+inh): with inhibitor
T1 sequence (P08183 whole entry): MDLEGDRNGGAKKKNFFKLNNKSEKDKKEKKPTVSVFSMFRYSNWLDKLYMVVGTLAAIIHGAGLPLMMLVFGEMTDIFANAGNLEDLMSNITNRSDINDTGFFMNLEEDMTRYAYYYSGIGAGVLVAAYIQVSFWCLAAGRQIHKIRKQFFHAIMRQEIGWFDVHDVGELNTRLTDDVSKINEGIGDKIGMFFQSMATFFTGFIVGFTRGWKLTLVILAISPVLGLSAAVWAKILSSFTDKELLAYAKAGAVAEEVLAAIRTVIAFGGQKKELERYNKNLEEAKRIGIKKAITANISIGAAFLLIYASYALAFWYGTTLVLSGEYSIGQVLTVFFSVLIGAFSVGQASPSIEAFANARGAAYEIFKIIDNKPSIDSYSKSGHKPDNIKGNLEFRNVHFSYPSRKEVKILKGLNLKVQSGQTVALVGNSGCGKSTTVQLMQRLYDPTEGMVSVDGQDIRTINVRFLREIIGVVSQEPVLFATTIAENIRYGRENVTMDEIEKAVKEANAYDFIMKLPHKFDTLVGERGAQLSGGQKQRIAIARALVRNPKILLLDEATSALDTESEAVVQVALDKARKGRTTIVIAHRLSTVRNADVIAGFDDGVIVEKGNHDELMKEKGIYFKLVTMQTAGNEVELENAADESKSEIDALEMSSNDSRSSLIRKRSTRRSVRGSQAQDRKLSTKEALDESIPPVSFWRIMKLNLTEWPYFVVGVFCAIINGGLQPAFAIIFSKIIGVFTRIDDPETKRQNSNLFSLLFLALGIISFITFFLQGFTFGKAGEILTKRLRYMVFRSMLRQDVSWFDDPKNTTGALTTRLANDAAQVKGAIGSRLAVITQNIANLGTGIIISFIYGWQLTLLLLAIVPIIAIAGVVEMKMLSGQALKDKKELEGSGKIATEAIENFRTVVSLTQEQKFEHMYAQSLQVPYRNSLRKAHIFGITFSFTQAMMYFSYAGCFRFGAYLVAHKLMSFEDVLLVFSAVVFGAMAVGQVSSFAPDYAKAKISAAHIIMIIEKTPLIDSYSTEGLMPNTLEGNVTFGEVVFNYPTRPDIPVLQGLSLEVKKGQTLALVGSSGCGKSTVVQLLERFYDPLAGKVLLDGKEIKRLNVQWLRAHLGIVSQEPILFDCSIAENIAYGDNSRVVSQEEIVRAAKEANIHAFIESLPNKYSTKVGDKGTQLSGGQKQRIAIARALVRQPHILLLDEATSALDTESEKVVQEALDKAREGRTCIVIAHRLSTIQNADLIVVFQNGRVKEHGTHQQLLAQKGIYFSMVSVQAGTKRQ

Colo-26 cells = settings: P-gp-expressing Colo-26 cells; cited from earlier work
[8] = ± SD; cited from earlier work
P-gp [9] = target: T1, P-gp; assay: P-gp transport studies across MDCKII-MDR1 monolayers; settings: for PPassive: mean of PAB and PBA in the fully inhibited system; for PBA/PAB / PAB, transport in absorptive direction / PBA, transport in secretory direction: no inhibitor; for PAB, transport in absorptive direction / PBA, transport in secretory direction / PAB, transport in absorptive direction (+inh) / PBA, transport in secretory direction (+inh): 5 × 10^−6 M dye, 4.3 mg mL^−1 BSA, ± SD; for PAB, transport in absorptive direction (+inh) / PBA, transport in secretory direction (+inh): with 5 × 10^−6 M inhibitor 15
[10] = Electronic absorption spectra in MeOH; assay type: physicochemical; settings: in CH3OH
[11] = Steady-state fluorescence spectra and quantum yields in CH3OH; assay type: physicochemical; settings: for Quantum yield for fluorescence ΦFL: excitation at 532 nm, ± SD
[12] = assay type: physicochemical; settings: air-saturated CH3OH, ± SD
CD4+ (helper T cells) = assay type: cell-based, human
CD8+ (cytotoxic T cells) = assay type: cell-based, human
HUT-78 cells [13] = assay: Colocalization with organelle reporters by ImageStream imaging flow cytometry; assay type: cell-based, human; settings: ± SD

Molecule	ratio of uptake +VER/−VER (HUT-78 cells [1])	% survival HUT-78 (HUT-78 cells [2]) [%]	% survival CD3+ [3] [%]	% survival CD3+ (CD25+) (CD3+ (CD25+) cells) [%]	% survival CD3+ (CD25−) (CD3+ (CD25−) cells) [%]	Absorption maximum λmax [4] [nm]	Molar extinction coefficient ε [4] [M⁻¹ cm⁻¹]	Quantum yield for fluorescence ΦFL [5]	Fluorescence emission maximum λFL [5] [nm]	PPassive (P-gp [9])	PBA/PAB (P-gp [9])	PAB, transport in absorptive direction (P-gp [9])	PBA, transport in secretory direction (P-gp [9])	PAB, transport in absorptive direction (+inh) (P-gp [9])	PBA, transport in secretory direction (+inh) (P-gp [9])	Absorption maximum λmax [10] [nm]	Molar extinction coefficient ε [10] [M⁻¹ cm⁻¹]	Fluorescence emission maximum λFL [11] [nm]	Quantum yield for fluorescence ΦFL [11]	Quantum yield for the generation of singlet oxygen Φ(1O2) [12]	other results
CN1CCC(C)(C)c2cc3c(-c4ccc(C(=S)N5CCCCC5)s4)c4ccc(=[N+](C)C)cc-4[se]c3cc21.[Cl-] [Compd 3]	1.27 ± 0.19	8.5 ± 1.2	21.0 ± 3.2	9.2 ± 1.0	29.1 ± 5.2	608	81100	0.008 ± 0.001	634												Quantum yield for the generation of singlet oxygen Φ(1O2) [6]: 0.44 ± 0.03; PPassive (P-gp [7]): ~2 ×10^−9 m s^−1; PAB, transport in absorptive direction (P-gp [7]): 1.9 ± 0.5 ×10^−9 m s^−1; PBA, transport in secretory direction (P-gp [7]): 29 ×10^−9 m s^−1 and 29 ± 3 ×10^−9 m s^−1; PBA/PAB (P-gp [7]): 15; PAB, transport in absorptive direction (+inh) (P-gp [7]): 1.7 ± 0.2 ×10^−9 m s^−1; PBA, transport in secretory direction (+inh) (P-gp [7]): 1.8 ± 0.1 ×10^−9 m s^−1; ratio of uptake +VER/−VER (Colo-26 cells): 1.9; n-octanol/water partition coefficient log P [8]: 1.61 ± 0.06
CN1CCC(C)(C)c2cc3c(-c4ccc(C(=O)N5CCCCC5)s4)c4ccc(=[N+](C)C)cc-4[se]c3cc21.[Cl-] [Compd 4]	1.33 ± 0.04	6.7 ± 1.2	26.6 ± 4.6	17.4 ± 1.7	32.3 ± 6.0	609	87300	0.009 ± 0.001	634												Quantum yield for the generation of singlet oxygen Φ(1O2) [6]: 0.48 ± 0.03; PPassive (P-gp [7]): ~6 ×10^−9 m s^−1; PAB, transport in absorptive direction (P-gp [7]): 0.9 ± 0.3 ×10^−9 m s^−1; PBA, transport in secretory direction (P-gp [7]): 164 ×10^−9 m s^−1 and 164 ± 4 ×10^−9 m s^−1; PBA/PAB (P-gp [7]): 182; PAB, transport in absorptive direction (+inh) (P-gp [7]): 1.0 ± 0.1 ×10^−9 m s^−1; PBA, transport in secretory direction (+inh) (P-gp [7]): 11.1 ± 0.2 ×10^−9 m s^−1; ratio of uptake +VER/−VER (Colo-26 cells): 5.1; n-octanol/water partition coefficient log P [8]: 2.23 ± 0.04
S=C(c1ccc(C2=c3cc4c5c(c3[Se]c3c2cc2c6c3CCCN6CCC2)CCC[N+]=5CCC4)s1)N1CCCCC1.[Cl-] [Compd 5, 9-(5-(piperidylcarbamothioyl)thiophen-2-yl)-2,3,6,7,12,13,16,17-octahydro-[1H,5H,11H,15H]-10-selenoxantheno[2,3,4-ij:5,6,7-i′j′]diquinolizin-18-ium chloride]	1.17 ± 0.13	2.0 ± 0.9	12.1 ± 2.6	4.8 ± 1.0	17.1 ± 4.3	626	99000	0.010 ± 0.002	660	<1 ×10^−9 m s^−1	57	0.3 ± 0.3 ×10^−9 m s^−1	18 ×10^−9 m s^−1	0.51 ± 0.3 ×10^−9 m s^−1	0.57 ± 0.1 ×10^−9 m s^−1						Quantum yield for the generation of singlet oxygen Φ(1O2) [6]: 0.51 ± 0.03; ratio of uptake +VER/−VER (Colo-26 cells): 2.9; n-octanol/water partition coefficient log P [8]: 4.1 ± 0.2
C[N+]1=c2cc3c(cc2C(C)(C)CC1)=C(c1ccc(C(=S)N2CCCCC2)s1)c1cc2c4c(c1[Se]3)CCCN4CCC2.[Cl-] [Compd 7]		5.1 ± 0.9	5.7 ± 2.6	2.6 ± 0.9						<1 ×10^−9 m s^−1	20	0.44 ± 0.1 ×10^−9 m s^−1	8.8 ×10^−9 m s^−1 and 8.8 ± 0.3 ×10^−9 m s^−1	0.46 ± 0.1 ×10^−9 m s^−1	0.32 ± 0.2 ×10^−9 m s^−1	620	92000	650	0.008 ± 0.001	0.54 ± 0.03	% survival CD4+ (CD4+ (helper T cells)): 0 ± 0%; % survival CD8+ (CD8+ (cytotoxic T cells)): 0 ± 0%
C[N+]1=c2cc3c(cc2C(C)(C)CC1)=C(c1ccc(C(=O)N2CCCCC2)s1)c1cc2c4c(c1[Se]3)CCCN4CCC2.[Cl-] [Compd 8]		6.0 ± 0.2	10.3 ± 1.4	5.0 ± 0.9						~1 ×10^−9 m s^−1	48	1.4 ± 0.8 ×10^−9 m s^−1	66 ×10^−9 m s^−1 and 66 ± 10 ×10^−9 m s^−1	0.18 ± 0.1 ×10^−9 m s^−1	2.8 ± 0.2 ×10^−9 m s^−1	620	110000	650	0.009 ± 0.001	0.64 ± 0.03	
CN1CCC(C)(C)c2cc3c(cc21)[Se]c1cc2c(cc1=C3c1ccc(C(=S)N3CCCCC3)s1)C(C)(C)CC[N+]=2C.[Cl-] [Compd 9]		8.1 ± 4.1	9.2 ± 2.2	7.0 ± 0.7						<1 ×10^−9 m s^−1	4		6.3 ×10^−9 m s^−1 and 6.3 ± 1.2 ×10^−9 m s^−1	0.51 ± 0.1 ×10^−9 m s^−1	0.13 ± 0.1 ×10^−9 m s^−1	614	93000	645	0.006 ± 0.001	0.64 ± 0.03	% survival CD4+ (CD4+ (helper T cells)): 0 ± 0%; % survival CD8+ (CD8+ (cytotoxic T cells)): 0 ± 0%
CN1CCC(C)(C)c2cc3c(cc21)[Se]c1cc2c(cc1=C3c1ccc(C(=O)N3CCCCC3)s1)C(C)(C)CC[N+]=2C.[Cl-] [Compd 10]		5.4 ± 0.8	22.2 ± 2.9	12.5 ± 0.4	29.8 ± 5.6					~2 ×10^−9 m s^−1	36	1.8 ± 1 ×10^−9 m s^−1	65 ×10^−9 m s^−1 and 65 ± 6 ×10^−9 m s^−1	0.51 ± 0.1 ×10^−9 m s^−1	4.0 ± 0.7 ×10^−9 m s^−1	614	105000	645	0.007 ± 0.001	0.95 ± 0.03	
MitoTracker Red [Compd 17]																					mean bright detail similarity score with 18 (LYS) (HUT-78 cells [13]; lysosome-specific reporter LysoTracker): 0.6 ± 0.4; mean bright detail similarity score with 16 (MTG) (HUT-78 cells [13]; mitochondrial reporter MitoTracker Green): 3.1 ± 0.7
